{"source": "patent US9051348B2", "about": "“Ginsenoside with anti-cancer activity and the preparation method thereof” (Macau University of Science and Technology, priority 2012, dated 2015)", "key": {"several tumor cell lines": {"test_system": "several tumor cell lines", "settings": "literature [2], cited from earlier work"}, "[1]": {"settings": "in cell culture; previous studies of the inventors; cited from earlier work"}, "[2]": {"test_system": "panel of 7 tumor cell lines and human normal lung fibroblasts", "settings": "previous studies of the inventors, cited from earlier work"}, "[3]": {"test_system": "human normal lung fibroblasts CCD19Lu", "assay": "MTT cytotoxicity assay in CCD19Lu cells", "format": "cell-based", "description": "(§1) The novel compound was dissolved in DMSO at final concentration of 100 mmol/L and stored at −20° C. Cytotoxicity was assessed using the 3-(4,5-dimethylthiazol-2-yl)-2,5-diphenyltetrazolium bromide assay as described previously. Several kinds of cells were seeded on 96-well plates, namely MCF-7, 4000 cells; HepG2, 4000 cells; HeLa, 3000 cells; A549, 4000 cells; LLC-1, 3000 cells; H1299, 3000 cells; CCD19Lu, 4000 cells per well. After overnight pre-incubation, the cells were exposed to different concentrations of the novel compound (0.039-100 μmol/L) or control compounds 20(S)-Rh2 and 20(R)-Rh2 for 3 days. Subsequently, 10 μL of MTT reagents was added to each well and incubated at 37° C. for 4 hours followed by the addition of 100 μL solubilization buffer (10% SDS in 0.01 mol/L HCl) and overnight incubation. A585 nm was determined from each well the next day. The percentage of viable cells was calculated using the following formula: Cell viability (%)=Atreated/Acontrol×100. Data was obtained from three independent experiments."}, "osteoclastgenesis": {"test_system": "osteoclastgenesis", "settings": "literature [2]; cited from earlier work"}, "[4]": {"settings": "literature [4]; cited from earlier work"}, "[5]": {"test_system": "lung cancer cells (LLC-1)", "assay": "MTT cytotoxicity assay in LLC-1 cells", "format": "cell-based, mouse", "description": "as §1"}, "[6]": {"assay": "Acute oral toxicity, OECD Test Guideline 423, 14-day", "format": "in vivo, C57BL/6J mice", "description": "The acute oral toxicity of the novel compound was evaluated in line with the Organization for Economic Cooperation and Development (OECD) Guideline for Testing Chemicals—Acute Oral Toxicity—Acute Toxic Class Method (Test Guideline 423, Adopted on 17 Dec. 2001). Based on the result of Example 4, the Test Procedure with a Starting Dose of 2000 mg/kg (Annex 2d of OECD 423) was selected to evaluate the acute toxicity of the novel compound. In the test, 3 female and 3 male C57BL/6J mice (SPF grade) were fasted overnight and then orally administrated by gavage feeding with single dose of the novel compound solution at 2000 mg/kg."}, "LLC-1 tumor": {"test_system": "LLC-1 tumor", "format": "in vivo, male C57BL/6J mice", "settings": "for suppression on the tumor growth: 21-day treatment, vs vehicle", "description": "The LLC-1 cells harvested from in vitro culture were adjusted to a concentration of 1.5×10^7/mL and 0.1 mL cell suspension was injected subcutaneously into the dorsal region of the male C57BL/6J mice. Subsequently, when 70% of mice had developed tumor into a volume (length×width^2×0.52) larger than 50 mm^3, the animals were randomly divided into the vehicle control and several treatment groups. The novel compound powder was dissolved with PEG400:ethanol:distilled water in a ratio of 60%:10%:30% (v/v/v), and orally administrated to mice by gavage feeding at doses of 10, 20, 40 and 80 mg/kg/day for 21 consecutive days. Oral administration of 80 mg/kg/day 20(R)-Rh2, 20(S)-Rh2 and 20(S)-Rg3, and 10 mg/kg/day 5-Fu were designed as control groups. In order to make sure all groups were appropriately blended, all the experimental procedures such as subcutaneous tumor cells injection, treatment and tumor size measurement were performed by three individual persons who were blended for animal group identity."}, "[7]": {"assay": "MTT cytotoxicity assay in CCD19Lu cells", "format": "cell-based, human", "settings": "human", "description": "as §1"}, "[8]": {"test_system": "other five cancer cell lines (MCF-7, HepG2, HeLa, A549, H1299)", "format": "cell-based", "description": "as §1"}, "[9]": {"assay": "Sub-chronic lethal dose study, 7-day repeated oral dosing", "format": "in vivo, male C57BL/6J mice", "settings": "160 and 320 mg/kg/day oral, 7-day treatment", "description": "10 male C57BL/6J mice were divided into two treatment groups, i.e. 160 mg/kg/day and 320 mg/kg/day. The novel compound powder was dissolved with PEG400:ethanol:distilled water in a ratio of 60%:10%:30% (v/v/v), and orally administrated to mice by gavage feeding at doses of 160 and 320 mg/kg/day for 7 consecutive days. The health condition of the animals was monitored and their body weights were recorded during this 7 days treatment duration."}}, "note": "Like-named read-outs stand apart in the source and are kept apart here."}
{"smiles": "CC(C)=CCC[C@@](C)(O)[C@H]1CC[C@]2(C)[C@@H]1[C@H](O)C[C@@H]1[C@@]3(C)CC[C@H](O[C@@H]4O[C@H](CO)[C@@H](O)[C@H](O)[C@H]4O)C(C)(C)[C@@H]3CC[C@]12C", "note": "[20(R)-Rh2, 20(R)-ginsenoside Rh2]", "values": [{"measurement": "cell cytotoxicity (in words)", "setting": "several tumor cell lines", "result": "without any cell cytotoxicity"}, {"measurement": "solubility (in words)", "setting": "[1]", "result": "poor solubility"}, {"measurement": "concentration up to which no cytotoxic effect", "setting": "[2]; in cell culture", "result": "> 100", "unit": "µM"}, {"measurement": "cytotoxicity (in words)", "setting": "[3]; CCD19Lu cells, MTT, 3 days exposure", "result": "no cytotoxicity"}, {"measurement": "osteoclastgenesis inhibition (in words)", "setting": "osteoclastgenesis", "result": "selective osteoclastgenesis inhibitor"}, {"measurement": "intestinal absorption (in words)", "setting": "[4]", "result": "lower absorption profiles"}, {"measurement": "cytotoxicity (in words)", "setting": "[5]; LLC-1 cells, MTT, 3 days exposure", "result": "no cytotoxicity"}]}
{"smiles": "CC(C)=CCC[C@](C)(O)[C@H]1CC[C@]2(C)[C@@H]1[C@H](O)C[C@@H]1[C@@]3(C)CC[C@H](O[C@@H]4O[C@H](CO)[C@@H](O)[C@H](O)[C@H]4O)C(C)(C)[C@@H]3CC[C@]12C", "note": "[20(S)-Rh2]", "values": [{"measurement": "IC50", "setting": "several tumor cell lines; several tumor cell lines, read-out: cytotoxicity, IC50", "result": "22 to 50", "unit": "µM"}, {"measurement": "IC50", "setting": "[2]; panel of 7 tumor cell lines and human normal lung fibroblasts, read-out: cytotoxicity, IC50", "result": "45 to 65", "unit": "µM"}, {"measurement": "IC50", "setting": "[3]", "result": 80.5, "unit": "µM"}, {"measurement": "IC50", "setting": "[5]", "result": 46.5, "unit": "µM"}]}
{"smiles": "CC(C)=CCC[C@](C)(O)[C@H]1CC[C@]2(C)[C@@H]1[C@H](O)C[C@@H]1[C@@]3(C)CC[C@H](O[C@@H]4O[C@H](CO)[C@@H](O)[C@H](O)[C@H]4O)C(C)(C)[C@@H]3CC[C@]12C", "note": "[Rh2, Ginsenoside Rh2]", "values": [{"measurement": "intestinal absorption (in words)", "setting": "[4]", "result": "poor intestinal absorption"}, {"measurement": "permeability (in words)", "setting": "[4]", "result": "poor permeability"}]}
{"smiles": "CC(C)(O)C1CC[C@](C)(C2CC[C@]3(C)C2[C@H](O)CC2[C@@]4(C)CC[C@H](O[C@@H]5OC(CO)[C@@H](O)C(O)C5O)C(C)(C)C4CC[C@]23C)O1", "note": "(stereo partly drawn) [novel compound]", "values": [{"measurement": "Globally Harmonized Classification System (GHS) class", "setting": "[6]; acute oral toxicity, OECD Test Guideline 423", "result": "Class 5 or unclassified"}, {"measurement": "LD50 at 14 days", "setting": "[6]; both sexes, C57BL/6J, mouse, in vivo, 2000 mg/kg, oral, mice, estimated per OECD Test Guideline 423 criteria", "result": "> 5000", "unit": "mg/kg"}, {"measurement": "body weight and sign of toxicity", "setting": "[6]; single oral dose 2000 mg/kg, 14 days", "result": "no significant drop of body weight and sign of toxicity"}, {"measurement": "animal death", "setting": "[6]; single oral dose 2000 mg/kg, 14 days, both gender", "result": "zero animal death"}, {"measurement": "suppression on the tumor growth", "setting": "LLC-1 tumor; 10 mg/kg/day oral, P>0.05", "result": 35.24, "unit": "%"}, {"measurement": "suppression on the tumor growth", "setting": "LLC-1 tumor; 20 mg/kg/day oral, P>0.05", "result": 40.49, "unit": "%"}, {"measurement": "suppression on the tumor growth", "setting": "LLC-1 tumor; 40 mg/kg/day oral, P<0.05", "result": 44.9, "unit": "%"}, {"measurement": "suppression on the tumor growth", "setting": "LLC-1 tumor; 80 mg/kg/day oral, P<0.01", "result": 52.04, "unit": "%"}, {"measurement": "adverse impacts on the major organs and body weight", "setting": "LLC-1 tumor; mouse, in vivo, po", "result": "without observable adverse impacts"}, {"measurement": "IC50 at 3 days", "setting": "[7]", "result": "> 100", "unit": "µM"}, {"measurement": "cytotoxic potency (in words)", "setting": "[8]", "result": "dose-dependent cytotoxic potency"}, {"measurement": "IC50", "setting": "[5]; Mus musculus, LLC1, 72 h, read-out: cytotoxic effect, IC50", "result": 56, "unit": "µM"}, {"measurement": "animal survival", "setting": "[9]", "result": 100, "unit": "%"}, {"measurement": "body weight", "setting": "[9]", "result": "no significant drop of body weight"}]}
